# Target: T1, HLA-B*4402 (Homo sapiens, UniProt P01889, A223V/A65T/A93T/A95T/D201E/D98Y/E176V/E187L/E204Q/E69K/G107R/H137Y/K202T/L105A/L119I/N104T/N87E/Q56L/Q94N/R106L/R155S/R180D/S101N/S121R/S35A/S48T/T118I/V36M/W191S/Y140D/Y91S)
# T1 construct: expressed in transfected cells; host or cells: C1R cells (MHC class I negative, EBV-transformed lymphoblastoid)
# Test: Competitive assay: inhibition of CTL 159/5 lysis of C1R-B*4402 cells sensitized with SEQ ID NO: 18
# Format: cell-based
# Conditions: C1R-B44 cells (B*4402 and B*4403 transfectants)
substance,measurement,value
Gin Glu Glu Gly Pro Ser Thr Phe [SEQ ID NO: 20],inhibition of lysis of C1R-B44 cells (indicates binding to HLA-B44 molecules),did inhibit lysis

# Source: US6060257A, “Tumor rejection antigens presented by HLA-B44 molecules, and uses thereof” (Ludwig Institute for Cancer Research, priority 1996, dated 2000)
